In patent US20220332700A1, “NOVEL APOPTOSIS SIGNAL-REGULATING KINASE 1 INHIBITORS” (MANKIND PHARMA LTD, priority 2019, published 2022) one finds IC50 data, which are given here for 19 molecules.

What is called IC50 is the concentration at which inhibition is half-maximal.

One test has as its target T1, recombinant ASK1 (Homo sapiens, UniProt Q99683).
T1 construct: purchased Carna Biosciences
The experiment in a line: ASK1 Biochemical Assay (HTRF KinEASE-STK S3). The following applies: ATP 100 μM; read-out: Biochemical Assay IC50. Here is the method:
ASK1 biochemical assay was standardized using recombinant ASK1 (Carna Biosciences), substrate and detection reagents from Cisbio HRTF KinEASE-STK S3 kit. Enzyme concentration, ATP, biotinylated STK substrate and STK antibodies were titrated for enzyme assay. Assay was carried out in ASK1 kinase buffer, 10 mM MOPS pH-7, 10 mM Mg-acetate, 1 mM DTT, 0.025% NP40, 1.5% glycerol and 0.05% BSA. DMSO was used as vehicle control with a final concentration of 1%. A 5 ng of ASK1 enzyme was incubated with compound for 1 hour at 23° C. on a shaker at 100rpm. ATP and biotin substrate was added at a final concentration of 100 μM and 1 μM and incubated for 3 hours at 23° C. on a shaker at 100rpm. […] Delta F ratios were calculated from data obtained at excitation (337 nm) and emission wavelengths (665 nm and 620-10 nm). Substrate blank values was considered as negative control. Values from negative control was substrated from vehicle control and compound treated wells. Enzyme inhibition by compounds were calculated from vehicle controls, which represent uninterrupted enzyme's activity.
(In general: In TR-FRET formats the signal depends on donor and acceptor labels being close together.)

Another test addresses T2, Human ASK1 (Homo sapiens, UniProt Q99683).
T2 construct: expressed in transfected cells; host or cells: HEK293T-AP1
T2 sequence (Q99683 1-1374): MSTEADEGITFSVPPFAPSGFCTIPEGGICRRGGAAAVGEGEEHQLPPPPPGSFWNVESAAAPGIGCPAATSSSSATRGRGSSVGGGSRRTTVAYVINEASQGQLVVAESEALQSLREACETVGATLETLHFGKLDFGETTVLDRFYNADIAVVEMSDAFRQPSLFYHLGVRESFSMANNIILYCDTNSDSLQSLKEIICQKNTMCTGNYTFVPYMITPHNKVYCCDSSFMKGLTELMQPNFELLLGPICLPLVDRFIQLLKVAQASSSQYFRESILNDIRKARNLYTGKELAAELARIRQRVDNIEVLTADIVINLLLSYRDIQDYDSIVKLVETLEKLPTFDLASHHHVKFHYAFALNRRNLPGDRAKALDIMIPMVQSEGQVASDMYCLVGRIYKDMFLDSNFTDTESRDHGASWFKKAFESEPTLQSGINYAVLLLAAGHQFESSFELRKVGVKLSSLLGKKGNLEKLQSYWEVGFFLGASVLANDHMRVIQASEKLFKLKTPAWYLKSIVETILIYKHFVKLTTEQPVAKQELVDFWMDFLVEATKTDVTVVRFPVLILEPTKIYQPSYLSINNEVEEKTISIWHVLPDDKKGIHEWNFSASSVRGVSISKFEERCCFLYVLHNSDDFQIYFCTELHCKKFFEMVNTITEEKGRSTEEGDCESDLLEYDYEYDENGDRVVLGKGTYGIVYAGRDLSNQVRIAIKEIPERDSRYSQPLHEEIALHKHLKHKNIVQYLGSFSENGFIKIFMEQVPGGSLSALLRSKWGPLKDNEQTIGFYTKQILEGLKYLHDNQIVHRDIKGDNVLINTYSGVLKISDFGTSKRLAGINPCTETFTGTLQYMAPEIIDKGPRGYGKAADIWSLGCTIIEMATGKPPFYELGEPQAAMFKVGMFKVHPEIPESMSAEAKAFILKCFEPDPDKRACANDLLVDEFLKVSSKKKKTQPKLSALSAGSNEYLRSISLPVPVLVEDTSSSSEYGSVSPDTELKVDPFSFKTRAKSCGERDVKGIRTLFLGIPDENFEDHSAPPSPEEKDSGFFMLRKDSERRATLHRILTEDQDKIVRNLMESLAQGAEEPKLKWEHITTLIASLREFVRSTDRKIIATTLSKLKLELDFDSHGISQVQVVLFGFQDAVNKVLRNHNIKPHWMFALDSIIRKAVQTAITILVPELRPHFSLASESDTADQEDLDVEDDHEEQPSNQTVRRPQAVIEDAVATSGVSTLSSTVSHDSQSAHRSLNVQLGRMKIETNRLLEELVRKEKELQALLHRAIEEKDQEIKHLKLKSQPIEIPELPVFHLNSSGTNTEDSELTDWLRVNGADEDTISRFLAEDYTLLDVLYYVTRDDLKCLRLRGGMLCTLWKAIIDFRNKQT
The experiment in a line: ASK1 Cell Based Assay (phospho p38 read out in hASK1 transfected HEK293T-AP1 cells). The note with it: HEK293T-AP1 cells, 1 mM hydrogen peroxide, phospho p38; read-out: Cell Based Assay IC50. Here is the method:
HEK293T-AP1 cells were seeded at a density of 20,000 cells per well in a poly-d-lysine coated 96 well microplate. Next day, cells were transfected with hASK1-pcDNA3.1 vector using lipofectamine 3000. After 24 hours of transfection, cells were treated with compounds for 24 hours in assay medium. DMSO was used as a vehicle control with a final DMSO concentration of 0.2%. On 4th day, medium was discarded and cells were activated with 1 mM hydrogen peroxide for 1 hour in the presence of compounds. Cells were lysed for 1 hour with 1× lysis buffer on a shaker at 100 rpm. Sixteen microliters of lysate was collected into a 384 well small volume plate. Phospho p38 levels in the lysate was detected by using CisbioPhospho-p38 MAPK (Thr180/Tyr182) #64P38PEG.Four microliters of phospho p38 antibodies labelled with europium cryptate and d2 acceptor, were added to the lysate and incubated overnight. TR-FRET was measured at an excitation of 335 nm and emission was measured at 615 nm and 665 nm in BMG FLUOstar multimode reader.
Compounds were assessed for ASK1 inhibition based on phospho p38 read out. […] Background control values were susbtracted from vehicle control as well as from compound treated wells.

Take `CC(C)n1cnnc1-c1cccc(N2CCN(c3cc(-c4ccc(S(C)(=O)=O)nc4)ccc3F)C2=O)n1` [Example 1021, 1-(2-fluoro-5-(6-(methylsulfonyl)pyridin-3-yl)phenyl)-3-(6-(4-isopropyl-4H-1,2,4-triazol-3-yl)pyridin-2-yl)imidazolidin-2-one]: the IC50 is greater than 1000 nM at recombinant ASK1 and greater than 10000 nM on Human ASK1.
Regarding `CC(C)n1cnnc1-c1cccc(N2CCNC2=O)n1` [Example 1022, 1-(6-(4-isopropyl-4H-1,2,4-triazol-3-yl)pyridin-2-yl)imidazolidin-2-one], the IC50 on recombinant ASK1 is less than 100 nM; at Human ASK1, greater than 1000 nM.
With `CC(C)n1cnnc1-c1cccc(N2CCN(c3ccc(S(=O)(=O)C4CC4)cc3)C2=O)n1` [Example 1025, 1-(4-(cyclopropylsulfonyl)phenyl)-3-(6-(4-isopropyl-4H-1,2,4-triazol-3-yl)pyridin-2-yl)imidazolidin-2-one], the IC50 is less than 100 nM on recombinant ASK1 and less than 1000 nM on Human ASK1.
Consider `Cc1cc(N2CCN(c3cccc(-c4nncn4C(C)C)n3)C2=O)ccc1S(C)(=O)=O` [Example 1029, 1-(6-(4-isopropyl-4H-1,2,4-triazol-3-yl)pyridin-2-yl)-3-(3-methyl-4-(methylsulfonyl)phenyl)imidazolidin-2-one], for which the figures for the IC50 on recombinant ASK1 and on Human ASK1 were less than 100 nM and greater than 1000 nM, respectively.
For the molecule `CC(C)n1cnnc1-c1cccc(N2CCN(c3ccc(S(C)(=O)=O)cc3F)C2=O)n1` [Example 1032, 1-(2-fluoro-4-(methylsulfonyl)phenyl)-3-(6-(4-isopropyl-4H-1,2,4-triazol-3-yl)pyridin-2-yl)imidazolidin-2-one], the IC50 is less than 100 nM at recombinant ASK1 and greater than 1000 nM on Human ASK1.
`CC(C)n1cnnc1-c1cccc(N2CCN(c3ccncc3)C2=O)n1` [Example 1034, 1-(6-(4-isopropyl-4H-1,2,4-triazol-3-yl)pyridin-2-yl)-3-(pyridin-4-yl)imidazolidin-2-one]: the IC50 was less than 100 nM on recombinant ASK1 and greater than 1000 nM at Human ASK1.
`CC(C)n1cnnc1-c1cccc(N2CCN(c3ccc(C#N)cc3)C2=O)n1` [Example 1035, 4-(3-(6-(4-isopropyl-4H-1,2,4-triazol-3-yl)pyridin-2-yl)-2-oxoimidazolidin-1-yl)benzonitrile]: the IC50 is less than 100 nM at recombinant ASK1 and greater than 10000 nM on Human ASK1.
The corresponding values for `CC(C)n1cnnc1-c1cccc(N2CCN(c3ccc(-n4ccnc4)cc3)C2=O)n1` [Example 1036, 1-(4-(1H-imidazol-1-yl)phenyl)-3-(6-(4-isopropyl-4H-1,2,4-triazol-3-yl)pyridin-2-yl)imidazolidin-2-one] are less than 100 nM and less than 1000 nM.
The corresponding values for `CC(C)n1cnnc1-c1cccc(N2CCN(c3ccc(C(=O)C4CC4)cc3)C2=O)n1` [Example 1037, 1-(4-(cyclopropanecarbonyl)phenyl)-3-(6-(4-isopropyl-4H-1,2,4-triazol-3-yl)pyridin-2-yl)imidazolidin-2-one] are less than 100 nM and less than 1000 nM.
Regarding `CC(C)n1cnnc1-c1cccc(N2CCN(c3ccc(S(C)(=O)=O)c(F)c3)C2=O)n1` [Example 1038, 1-(3-fluoro-4-(methylsulfonyl)phenyl)-3-(6-(4-isopropyl-4H-1,2,4-triazol-3-yl)pyridin-2-yl)imidazolidin-2-one], the IC50 was less than 100 nM at recombinant ASK1 and less than 1000 nM on Human ASK1.
For the molecule `COc1ccc(N2CCN(c3cccc(-c4nncn4C(C)C)n3)C2=O)cc1` [Example 1039, 1-(6-(4-isopropyl-4H-1,2,4-triazol-3-yl)pyridin-2-yl)-3-(4-methoxyphenyl)imidazolidin-2-one], the IC50 on recombinant ASK1 was less than 100 nM; at Human ASK1, greater than 1000 nM.
Take `CC(C)n1cnnc1-c1cccc(N2CCN(c3ccc(-n4cnc(C5CC5)c4)cc3)C2=O)n1` [Example 1040, 1-(4-(4-cyclopropyl-1H-imidazol-1-yl)phenyl)-3-(6-(4-isopropyl-4H-1,2,4-triazol-3-yl)pyridin-2-yl)imidazolidin-2-one]: the values for the IC50 at recombinant ASK1 and at Human ASK1 were less than 100 nM and greater than 10000 nM, respectively.
With `CC(C)n1cnnc1-c1cccc(N2CCN(c3ccc(N(C)C)cc3)C2=O)n1` [Example 1041, 1-(4-(dimethylamino)phenyl)-3-(6-(4-isopropyl-4H-1,2,4-triazol-3-yl)pyridin-2-yl)imidazolidin-2-one], the IC50 is less than 100 nM on recombinant ASK1 and greater than 1000 nM on Human ASK1.
Take `CC(C)n1cnnc1-c1cccc(N2CCN(c3ccc(NS(C)(=O)=O)cc3)C2=O)n1` [Example 1044, N-(4-(3-(6-(4-isopropyl-4H-1,2,4-triazol-3-yl)pyridin-2-yl)-2-oxoimidazolidin-1-yl)phenyl)methanesulfonamide]: the concentration for half-maximal inhibition (IC50) was less than 100 nM on recombinant ASK1 and greater than 1000 nM at Human ASK1.
The corresponding values for `CNS(=O)(=O)c1ccc(N2CCN(c3cccc(-c4nncn4C(C)C)n3)C2=O)cc1` [Example 1045, 4-(3-(6-(4-isopropyl-4H-1,2,4-triazol-3-yl)pyridin-2-yl)-2-oxoimidazolidin-1-yl)-N-methylbenzenesulfonamide] are less than 100 nM and less than 1000 nM.
The corresponding values for `CC(C)n1cnnc1-c1cccc(N2CCN(c3ccc(CS(C)(=O)=O)cc3)C2=O)n1` [Example 1047, 1-(6-(4-isopropyl-4H-1,2,4-triazol-3-yl)pyridin-2-yl)-3-(4-((methylsulfonyl)methyl)phenyl)imidazolidin-2-one] are less than 100 nM and greater than 1000 nM.
As for `CC(C)n1cnnc1-c1cccc(N2CCN(c3ccc(C(=O)NC4CC4)cc3)C2=O)n1` [Example 1048, N-cyclopropyl-4-(3-(6-(4-isopropyl-4H-1,2,4-triazol-3-yl)pyridin-2-yl)-2-oxoimidazolidin-1-yl)benzamide], the results for the IC50 on recombinant ASK1 and on Human ASK1 were less than 100 nM and greater than 1000 nM, respectively.
Take `COCCS(=O)(=O)c1ccc(N2CCN(c3cccc(-c4nncn4C(C)C)n3)C2=O)cc1` [Example 1050, 1-(4-(2-methoxyethylsulfonyl)phenyl)-3-(6-(4-isopropyl-4H-1,2,4-triazol-3-yl)pyridin-2-yl)imidazolidin-2-one]: the concentration for half-maximal inhibition (IC50) was less than 100 nM on recombinant ASK1 and greater than 1000 nM on Human ASK1.
On to `CC(C)n1cnnc1-c1cccc(N2CCN(c3ccc(C(O)C4CC4)cc3)C2=O)n1` (centres unmarked) [Example 1051, 1-(4-(cyclopropyl(hydroxy)methyl)phenyl)-3-(6-(4-isopropyl-4H-1,2,4-triazol-3-yl)pyridin-2-yl)imidazolidin-2-one], for which the IC50 at recombinant ASK1 is less than 100 nM; at Human ASK1 it was less than 1000 nM.
